{
  "source": "patent US20080166330A1",
  "about": "“Bacterial Compositions For Prevention Or Treatment Of Atherosclerotic Disorders” (priority 2004, published 2008)",
  "origin": "cited, not measured here",
  "system": "anti-Chlamydia abzymes",
  "conditions": "general statement of the description, no test details",
  "data": [
    {"smiles": "CC[C@H]1OC(=O)[C@H](C)[C@@H](O[C@H]2C[C@@](C)(OC)[C@@H](O)[C@H](C)O2)[C@H](C)[C@@H](O[C@@H]2O[C@H](C)C[C@H](N(C)C)[C@H]2O)[C@](C)(O)C[C@@H](C)CN(C)[C@H](C)[C@@H](O)[C@]1(C)O", "note": "[azithromycin]", "values": [
      {"measurement": "inhibition of abzyme activity", "result": "inhibit abzyme activity"}
    ]}
  ]
}
